Data as given in patent EP0126944B1, “Use of 6-(Z) or 2-(Z) configurational 3,7,11-trimethyl-dodeca-2,6,10-trien-1-ols as bacteriostats in cosmetic products” (Dragoco Gerberding & Co. GmbH, priority 1983, dated 1984).

Assays:
Experiment in all cases: Vertical diffusion test (impregnated filter paper embedded in agar)
Format in all cases: cell-based
[1] = test system: Staphylococcus epidermidis; conditions: for Vertikaler Diffusionstest, Staphylococcus epidermidis 10^4 / Vertikaler Diffusionstest, Staphylococcus epidermidis 10^6 KBE/ml / Hemmung / antibakterielle Wirkung: 0,3 %; for Vertikaler Diffusionstest, Staphylococcus epidermidis 10^4 / Vertikaler Diffusionstest, Staphylococcus epidermidis 10^6 KBE/ml: 0,2 ml/ 15,9 cm^2; for Vertikaler Diffusionstest, Staphylococcus epidermidis 10^4: 10^4 KBE/ml; for Hemmung / antibakterielle Wirkung: Tabelle 1
Text: (§1) Die mikrobiologischen Prüfungen wurden mit den Bakterienarten Staphylococcus aureus, Corynebacterium species und Staphylococcus epidermidis durchgeführt. Es wurden jeweils Konzentrationen von 0,3 % der Verbindungen 1a, b, c, 2 gegen unterschiedliche Keimzahlen eingesetzt und 1. mit einer Aufschwemmung von 10^4 koloniebildenden Einheiten/ml (KBE/ml) und 2. mit 10^6 KBE/ml versehen. Die Durchführung der Untersuchung erfolgte in üblicher Weise, indem Filterpapierplättchen mit einer Fläche von 15,9 cm^2 mit je 0,2 ml der 0,3 % igen alkoholischen Konzentrationen beschickt wurden. Nach Trocknen der aufgebrachten Lösungen wurden die Filterpapierplättchen dann in den Agar von Petrischalen eingebettet, so daß die Oberfläche mit einer dünnen Agarschicht überschichtet werden konnte. Danach wurde die ganze Platte mit den Testbakterien in unterschiedlicher Keimkonzentration beimpft. (Tabelle 1)

Corynebacterium species = conditions: 0,3 %; for Vertikaler Diffusionstest, Corynebacteriumt species 10^4 / Vertikaler Diffusionstest, Corynebacteriumt species 10^6 KBE/ml: 0,2 ml/ 15,9 cm^2; for Vertikaler Diffusionstest, Corynebacteriumt species 10^4: 10^4 KBE/ml; for antibakterielle Wirkung: Tabelle 1, Corynebacterium species
Text: as §1

[2] = test system: Staphylococcus aureus SG 511; conditions: for Vertikaler Diffusionstest, Staphylococcus aureus SG 511 10^4 / Vertikaler Diffusionstest, Staphylococcus aureus SG 511 10^6 KBE/ml / antibakterielle Wirkung: 0,3 %; for Vertikaler Diffusionstest, Staphylococcus aureus SG 511 10^4 / Vertikaler Diffusionstest, Staphylococcus aureus SG 511 10^6 KBE/ml: 0,2 ml/ 15,9 cm^2; for Vertikaler Diffusionstest, Staphylococcus aureus SG 511 10^4: 10^4 KBE/ml; for antibakterielle Wirkung: Tabelle 1
Text: as §1

Row | SMILES | Vertikaler Diffusionstest, Staphylococcus epidermidis 10^4 [1] | Vertikaler Diffusionstest, Staphylococcus epidermidis 10^6 KBE/ml [1] | Hemmung ([1]; Staphylococcus epidermidis) | antibakterielle Wirkung ([1]; Staphylococcus epidermidis) | Vertikaler Diffusionstest, Corynebacteriumt species 10^4 (Corynebacterium species) | Vertikaler Diffusionstest, Corynebacteriumt species 10^6 KBE/ml (Corynebacterium species) | antibakterielle Wirkung (Corynebacterium species) | Vertikaler Diffusionstest, Staphylococcus aureus SG 511 10^4 [2] | Vertikaler Diffusionstest, Staphylococcus aureus SG 511 10^6 KBE/ml [2] | antibakterielle Wirkung ([2]; Staphylococcus aureus) | Wirksamkeit ([1]; compared with 1a, b, c, Staphylococcus epidermidis) | Wirksamkeit ([2]; compared with 1a, b, c, Staphylococcus aureus)
1 | CC(C)=CCC/C(C)=C/CC/C(C)=C\CO [Substanz 1a] | 0 - 1 | 0 - 1 | fast totale Hemmung | deutliche antibakterielle Wirkung | 0 | 0 | deutliche antibakterielle Wirkung | 0 | 0 | deutliche antibakterielle Wirkung |  | 
2 | CC(C)=CCC/C(C)=C\CC/C(C)=C/CO [Substanz 1b] | 0 | 0 - 1 | fast totale Hemmung | deutliche antibakterielle Wirkung | 0 | 0 | deutliche antibakterielle Wirkung | 0 | 0 | deutliche antibakterielle Wirkung |  | 
3 | CC(C)=CCC/C(C)=C\CC/C(C)=C\CO [Substanz 1c] | 0 | 0 - 1 | fast totale Hemmung | deutliche antibakterielle Wirkung | 0 | 0 | deutliche antibakterielle Wirkung | 0 | 0 | deutliche antibakterielle Wirkung |  | 
4 | CC(C)=CCCC(C)=CCCC(C)=CCO [Substanz 2, Farnesol, reference compound] | 1 - 2 | 1 - 2 |  |  | 0 | 0 |  | 0 - 1 | 0 - 1 |  | etwas geringerer Wirksamkeit | etwas geringerer Wirksamkeit
